Measured values published in paper PMC9837764 (Nature Communications, 2023).
“And” between values parts separate entries of the source, which are not always exact repeats. Equal entries are not always repeated.

What was measured:
SARS-CoV-2 = assay: Yield-reduction assay, SARS-CoV-2 in Calu-3 cells (titers as PFU/mL in Vero cells); settings: for Inhibition of SARS-CoV-2 infectious titers (Fig1B source data, replicates): additional treatment at 24 h; for Inhibition of SARS-CoV-2 infectious titers (Fig1A source data, replicates): one treatment
SARS-CoV-2 Gamma VoC [1] = test system: SARS-CoV-2 Gamma VoC; design: species or system Syrian hamsters (Mesocricetus auratus); settings: hamster, in vivo, 140 mg/kg
[2] = test system: Salmonella typhimurium TA 97a; assay: Ames test, strain TA 97a
SARS-CoV-2 gamma VoC [3] = test system: SARS-CoV-2 gamma VoC; design: species or system K18-hACE2 mice (Mus musculus); settings: mouse, in vivo, 140 mg/kg/day

`c1coc(CNc2ncnc3[nH]cnc23)c1` [MB-905, N6-furfurylaminopurine] showed an EC50 (SARS-CoV-2; Severe acute respiratory syndrome coronavirus 2, Calu-3) of 310 ± 50 nM, an EC50 (SARS-CoV-2; Severe acute respiratory syndrome coronavirus 2, Calu-3, 24 h) of 30 ± 4 nM and an EC90 (SARS-CoV-2; Severe acute respiratory syndrome coronavirus 2, read-out: In vitro EC90 values, range) of 2100 to 6300 nM. For the same compound, the “Inhibition of SARS-CoV-2 infectious titers (Fig1B source data, replicates)” value (“Inhibition … (Fig1B source data, replicates)” for short) (SARS-CoV-2; Drug 0.001, Calu-3, 48 h) was 16 and 20 and 22, the “Inhibition … (Fig1B source data, replicates)” value (SARS-CoV-2; Drug 0.01) was 22 and 55 and 63 and the “Inhibition … (Fig1B source data, replicates)” value (SARS-CoV-2; Drug 0.1) was 66 and 47 and 65. For the same compound, the “Inhibition … (Fig1B source data, replicates)” value (SARS-CoV-2; Drug 1) was 92 and 72 and 69, the “Inhibition … (Fig1B source data, replicates)” value (SARS-CoV-2; Drug 10) was 98 and 97 and 96 and the “Antiviral activity, SARS-CoV-2 replication” value (SARS-CoV-2; huh-7 and calu-3 cells (Supplementary Fig. 2)) was “inhibited SARS-CoV-2 replication in a concentration-dependent manner”. The “Inhibition of SARS-CoV-2 infectious titers (Fig1A source data, replicates)” value (shortened to “Inhibition … (Fig1A source data, replicates)”) (SARS-CoV-2; Drug 0.001, Calu-3, MOI 0.1, 48 h) was 5 and 4 and 2, the “Inhibition … (Fig1A source data, replicates)” value (SARS-CoV-2; Drug 0.01) was 15 and 4 and 13 and the “Inhibition … (Fig1A source data, replicates)” value (SARS-CoV-2; Drug 0.1) was 22 and 39 and 30. For the same compound, the “Inhibition … (Fig1A source data, replicates)” value (SARS-CoV-2; Drug 1) was 60 and 91 and 74, the “Inhibition … (Fig1A source data, replicates)” value (SARS-CoV-2; Drug 10) was 66 and 96 and 88 and the Lung injury (SARS-CoV-2 Gamma VoC [1]) was “protected this organ”. The “Mutagenicity TA 97a +S9” value ([2]; 8 µg/mL) was “-”, the “Mutagenicity TA 97a -S9” value ([2]; 8 µg/mL) was “-” and the “Mutagenicity TA 97a +S9” value ([2]; 40 µg/mL) was “-”. For the same compound, the “Mutagenicity TA 97a -S9” value ([2]; 40 µg/mL) was “-”, the “Mutagenicity TA 97a +S9” value ([2]; 200 µg/mL) was “-” and the “Mutagenicity TA 97a -S9” value ([2]; 200 µg/mL) was “-”. For the same compound, the “Mutagenicity TA 97a +S9” value ([2]; 1,000 µg/mL) was “-”, the “Mutagenicity TA 97a -S9” value ([2]; 1,000 µg/mL) was “-” and the “Mutagenicity TA 97a +S9” value ([2]; 5,000 µg/mL) was “-”. The “Mutagenicity TA 97a -S9” value ([2]; 5,000 µg/mL) was “-”, the Ames test ([2]; all strains of Supplementary Table 3) was “negative” and the “Infectious titers in lungs” value (SARS-CoV-2 gamma VoC [3]) was “decreased significantly”. The “Virus RNA levels from lung extracts” value (SARS-CoV-2 gamma VoC [3]) was “did not alter”.
